Laboratory results reported in patent US8952177B2 (Janssen Pharmaceutica NV, priority 2013, dated 2015).
pIC50, pKi: −log10 of the molar value. Where a name gives a salt, the structure may show the parent alone.

Key:
human FLAP = human FLAP (Homo sapiens (Human), UniProt P20292); test: FLAP binding assay (HTRF format); settings: human FLAP-containing Sf-9 membranes, 25 nM HTRF ligand, 2 h; average of runs; read-out: FLAP Binding wild type HTRF Ki
Procedure: The ability of the compounds of the present invention to treat a FLAP-mediated disease and/or disorder, or associated symptoms or complications thereof, was determined using the following procedures. Binding assay data represent the average value obtained from two different assay plates, with samples run in duplicate on each plate. Human whole blood assay data represent a single replicate on an assay plate using whole blood from at least one healthy donor.
The assay below is used to test the modulatory activity of compounds against FLAP. Human and mouse FLAP-encoding DNA was amplified by polymerase chain reaction and cloned into pFastBacl (Invitrogen) with a NH2-terminal 6-His tag for expression in Spodoptera frugiperda (Sf-9) cells. FLAP-containing membranes were prepared as was a FITC-labeled FLAP modulator (3-(3-(tert-butylthio)-1-(4-chlorobenzyl)-5-(quinolin-2-ylmethoxy)-1H-indol-2-yl)-2,2-dimethylpropanoic acid). The FLAP binding assay is performed in HTRF format (homogeneous time resolved fluorescence). […] The reaction is allowed to proceed for two hours after which the plate is read on an Envision plate reader in HTRF mode. Data are expressed as a HTRF ratio.
For human FLAP binding assays, data are analyzed with 3DX Explorer software. […] For analysis, data from multiple runs are averaged and each compound may be tested in 2 to 20 runs. Each run comprises two plates and each plate includes duplicates. Data from each plate is averaged and data are imported into 3DX. The data from multiple runs are aggregated as the average of duplicates of the calculated ratios in order to calculate Ki and IC50 values. Numbers in parentheses are the number of runs for the assay.

[1] = test system: leukotriene pathway in human whole blood (LTB4); test: Human whole blood assay (LTB4 after calcium ionophore A23187 stimulation); assay type: cell-based; settings: Homo sapiens, human whole blood diluted 1:1 in RPMI, 15 min pre-incubation, A23187 7 μg/mL for 30 min at 37° Celsius
Summary of the method: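 Heparinised human whole blood, diluted 1:1 in RPMI, was preincubated with compound for 15 min at 37° C. before stimulation with A23187 (7 μg/mL) for 30 min. Plasma LTB4 was measured by immunoassay kit and IC50 obtained by 4-parameter fit; single replicate per plate, blood from at least one donor.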

Chain of human FLAP (P20292 whole entry): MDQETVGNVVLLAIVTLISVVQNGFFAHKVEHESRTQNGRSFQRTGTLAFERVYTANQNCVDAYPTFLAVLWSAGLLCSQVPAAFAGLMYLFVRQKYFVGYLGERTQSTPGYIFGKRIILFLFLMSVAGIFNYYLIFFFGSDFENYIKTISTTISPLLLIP

Compound | pKi (human FLAP) | pIC50 [1]
Cc1ccc(COc2ccc3nc(C4CCCC[C@@H]4C(=O)O)n(Cc4ccc(C#N)cc4)c3c2)nc1 (mixture of isomers) [Example 18, racemic trans-2-{1-(4-Cyanobenzyl)-6-[(5-methylpyridin-2-yl)methoxy]-1H-benzimidazol-2-yl}cyclohexanecarboxylic acid as the TFA salt] | 7.28 | < 5.00
Cc1ccc(COc2ccc3nc(C4CCCC[C@H]4C(=O)O)n(Cc4ccc(C#N)cc4)c3c2)nc1 (mixture of isomers) [Example 37, racemic cis-2-{1-(4-Cyanobenzyl)-6-[(5-methylpyridin-2-yl)methoxy]-1H-benzimidazol-2-yl}cyclohexanecarboxylic acid as the TFA salt] | 7.59 | 6.17
Cc1ccc(Cn2c(C3[C@@H](C(=O)O)C3(C)C)nc3c(F)cc(OCc4ccc(C)cn4)cc32)cc1 (mixture of isomers) [Example 64, racemic cis-3-{4-Fluoro-1-(4-methylbenzyl)-6-[(5-methylpyridin-2-yl)methoxy]-1H-benzimidazol-2-yl}-2,2-dimethylcyclopropanecarboxylic acid as the TFA salt] | 6.54 | 5.48
Cc1ccc(COc2ccc3nc([C@H]4CCCC[C@H]4C(=O)O)n(Cc4ccc(-c5ncc(Cl)cn5)cc4)c3c2)nc1 (racemic) [Example 80, racemic cis-2-{1-[4-(5-Chloropyrimidin-2-yl)benzyl]-6-[(5-methylpyridin-2-yl)methoxy]-1H-benzimidazol-2-yl}cyclohexanecarboxylic acid] | 8.48 | 6.52
Cn1cc(Cl)c(COc2ccc3nc([C@@H]4CCCC[C@@H]4C(=O)O)n(Cc4ccc(N5CCCCC5)cc4)c3c2)n1 (racemic) [Example 82, racemic cis-2-{6-[(4-Chloro-1-methyl-1H-pyrazol-3-yl)methoxy]-1-(4-piperidin-1-ylbenzyl)-1H-benzimidazol-2-yl}cyclohexanecarboxylic acid] | 8.10 | 6.77
Cn1cc(Cl)c(COc2ccc3nc([C@@H]4CCCC[C@@H]4C(=O)O)n(Cc4ccc(OC(F)(F)F)cc4F)c3c2)n1 (racemic) [Example 83, racemic cis-2-{6-[(4-Chloro-1-methyl-1H-pyrazol-3-yl)methoxy]-1-[2-fluoro-4-(trifluoromethoxy)benzyl]-1H-benzimidazol-2-yl}cyclohexanecarboxylic acid] | 8.38 | 6.46
Cn1cc(F)c(COc2ccc3nc([C@@H]4CCCC[C@@H]4C(=O)O)n(Cc4ccc(OC(F)(F)F)cc4F)c3c2)n1 (racemic) [Example 85, racemic cis-2-{6-[(4-Fluoro-1-methyl-1H-pyrazol-3-yl)methoxy]-1-[2-fluoro-4-(trifluoromethoxy)benzyl]-1H-benzimidazol-2-yl}cyclohexanecarboxylic acid] | 8.85 | 6.17
Cn1cc(Cl)c(COc2ccc3nc([C@@H]4CCCC[C@@H]4C(=O)O)n(Cc4ccc(N5CCC(F)CC5)cc4)c3c2)n1 (racemic) [Example 87, racemic cis-2-{6-[(4-Chloro-1-methyl-1H-pyrazol-3-yl)methoxy]-1-[4-(4-fluoropiperidin-1-yl)benzyl]-1H-benzimidazol-2-yl}cyclohexanecarboxylic acid] | 7.82 | 5.75
Cn1ccc(COc2cc(F)c3nc([C@@H]4CCCC[C@@H]4C(=O)O)n(Cc4ccc(Br)cc4)c3c2)n1 (racemic) [Example 93, racemic cis-2-{1-(4-Bromobenzyl)-4-fluoro-6-[(1-methyl-1H-pyrazol-3-yl)methoxy]-1H-benzimidazol-2-yl}cyclohexanecarboxylic acid] | 8.96 | 6.26
Cn1ccc(COc2cc(F)c3nc([C@@H]4CCCC[C@@H]4C(=O)O)n(Cc4ccc(Br)cc4F)c3c2)n1 (racemic) [Example 94, racemic cis-2-{1-(4-Bromo-2-fluorobenzyl)-4-fluoro-6-[(1-methyl-1H-pyrazol-3-yl)methoxy]-1H-benzimidazol-2-yl}cyclohexanecarboxylic acid] | 8.62 | 6.47
Cn1ccc(COc2cc(F)c3nc([C@@H]4CCCC[C@@H]4C(=O)O)n(Cc4ccc(OC(F)(F)F)cc4)c3c2)n1 (racemic) [Example 95, racemic cis-2-{4-Fluoro-6-[(1-methyl-1H-pyrazol-3-yl)methoxy]-1-[4-(trifluoromethoxy)benzyl]-1H-benzimidazol-2-yl}cyclohexanecarboxylic acid as the HCl salt] | 8.44 | 5.87
Cc1ccc(COc2ccc3nc([C@@H]4CCCC[C@@H]4C(=O)O)n(Cc4ccc(OC(F)(F)F)cc4C)c3c2)nc1 (racemic) [Example 100, racemic cis-2-{6-[(5-Methylpyridin-2-yl)methoxy]-1-[2-methyl-4-(trifluoromethoxy)benzyl]-1H-benzimidazol-2-yl}cyclohexanecarboxylic acid] | 7.72 | 5.60
Cc1cccc(COc2ccc3nc(CC(C)(C)C(=O)O)n(Cc4ccc(Br)cc4)c3c2)n1 [Example 108, 3-{1-(4-Bromobenzyl)-6-[(6-methylpyridin-2-yl)methoxy]-1H-benzimidazol-2-yl}-2,2-dimethylpropanoic acid] | 5.65 | –

Second part, the compound after the results:

pKi (human FLAP) | pIC50 [1] | Compound
8.23 | 6.72 | COc1cc(OC(F)(F)F)ccc1Cn1c([C@H]2CCCC[C@H]2C(=O)O)nc2ccc(OCc3ccn(C)n3)cc21 (racemic) [Example 84, racemic cis-2-{1-[2-Methoxy-4-(trifluoromethoxy)benzyl]-6-[(1-methyl-1H-pyrazol-3-yl)methoxy]-1H-benzimidazol-2-yl}cyclohexanecarboxylic acid]
7.49 | 5.44 | Cn1ccc(COc2ccc3nc([C@@H]4CCCC[C@@H]4C(=O)O)n(Cc4ccc(N5CC(F)(F)C5)cc4)c3c2)n1 (racemic) [Example 89, racemic cis-2-{1-[4-(3,3-Difluoroazetidin-1-yl)benzyl]-6-[(1-methyl-1H-pyrazol-3-yl)methoxy]-1H-benzimidazol-2-yl}cyclohexanecarboxylic acid]
8.18 | 6.77 | Cn1ccc(COc2ccc3nc([C@@H]4CCCC[C@@H]4C(=O)O)n(Cc4ccc(OC(F)(F)F)cc4F)c3c2F)n1 (racemic) [Example 91, racemic cis-2-{7-Fluoro-1-[2-fluoro-4-(trifluoromethoxy)benzyl]-6-[(1-methyl-1H-pyrazol-3-yl)methoxy]-1H-benzimidazol-2-yl}cyclohexanecarboxylic acid]
8.15 | 6.09 | Cn1ccc(COc2cc(F)c3nc([C@H]4CCCC[C@H]4C(=O)O)n(Cc4ccc(OC(F)(F)F)cc4F)c3c2)n1 (racemic) [Example 96, racemic cis-2-{4-Fluoro-1-[2-fluoro-4-(trifluoromethoxy)benzyl]-6-[(1-methyl-1H-pyrazol-3-yl)methoxy]-1H-benzimidazol-2-yl}cyclohexanecarboxylic acid as the HCl salt]
8.12 | 6.52 | Cc1ccc(Cn2c([C@@H]3CCCC[C@@H]3C(=O)O)nc3c(F)cc(OCc4ccn(C)n4)cc32)cc1 (racemic) [Example 97, racemic cis-2-{4-Fluoro-1-(4-methylbenzyl)-6-[(1-methyl-1H-pyrazol-3-yl)methoxy]-1H-benzimidazol-2-yl}cyclohexanecarboxylic acid as the HCl salt]
7.74 | 5.97 | Cc1cc(OC(F)(F)F)ccc1Cn1c([C@@H]2CCCC[C@@H]2C(=O)O)nc2ccc(OCc3ccn(C)n3)cc21 (racemic) [Example 99, racemic cis-2-{6-[(1-Methyl-1H-pyrazol-3-yl)methoxy]-1-[2-methyl-4-(trifluoromethoxy)benzyl]-1H-benzimidazol-2-yl}cyclohexanecarboxylic acid]
7.68 | 6.05 | Cc1ccc(COc2ccc3nc([C@@H]4CCCC[C@@H]4C(=O)O)n(Cc4ccc(OC(F)(F)F)cc4Cl)c3c2)nc1 (racemic) [Example 101, racemic cis-2-{1-[2-Chloro-4-(trifluoromethoxy)benzyl]-6-[(5-methylpyridin-2-yl)methoxy]-1H-benzimidazol-2-yl}cyclohexanecarboxylic acid as the HCl salt]
7.52 | 6.00 | Cn1ccc(COc2ccc3nc([C@@H]4CCCC[C@@H]4C(=O)O)n(Cc4ccc(OC(F)(F)F)cc4Cl)c3c2)n1 (racemic) [Example 103, racemic cis-2-{1-[2-Chloro-4-(trifluoromethoxy)benzyl]-6-[(1-methyl-1H-pyrazol-3-yl)methoxy]-1H-benzimidazol-2-yl}cyclohexanecarboxylic acid as the HCl salt]
